“And” between values parts separate entries of the source, which are not always exact repeats. Identical values can stand only once. Toxic doses and inconclusive results are not listed.
System: P388 leukemia ip, CD2F1 mice, survival T/C
Assay: NCI In Vivo Anticancer Drug Screen. Data for tumor model P388 Leukemia (intraperitoneal) in CD2F1 (CDF1) mice
Details: endpoint: median survival time, higher = longer survival
How it was run: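 Mice carrying the transplanted tumor received test compound or vehicle. Survival was recorded in each group, and the value is the treated-group measurement divided by that of the vehicle-treated control group.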

[1] = dose: 12.5 mg/kg/injection, schedule: Q01DX009 (ip), vehicle: saline with Tween-80
[2] = dose: 50.0 mg/kg/injection, schedule: Q01DX009 (ip), vehicle: saline with Tween-80
[3] = dose: 12.5 mg/kg/injection, schedule: Q01DX005 (ip), vehicle: saline with Tween-80
[4] = dose: 60.0 mg/kg/injection, schedule: Q01DX005 (ip), vehicle: saline with Tween-80
[5] = dose: 120.0 mg/kg/injection, schedule: Q01DX005 (ip), vehicle: saline with Tween-80
[6] = dose: 240.0 mg/kg/injection, schedule: Q01DX005 (ip), vehicle: saline with Tween-80
[7] = dose: 50.0 mg/kg/injection, schedule: Q01DX009 (ip), vehicle: Klucel (hydroxypropylcellulose) (HPC)
[8] = dose: 100.0 mg/kg/injection, schedule: Q01DX009 (ip), vehicle: Klucel (hydroxypropylcellulose) (HPC)
[9] = dose: 200.0 mg/kg/injection, schedule: Q01DX009 (ip), vehicle: Klucel (hydroxypropylcellulose) (HPC)
[10] = dose: 50.0 mg/kg/injection, schedule: Q01DX009 (ip), vehicle: saline
[11] = dose: 100.0 mg/kg/injection, schedule: Q01DX009 (ip), vehicle: saline
[12] = dose: 50.0 mg/kg/injection, schedule: Q01DX005 (ip), vehicle: Klucel (hydroxypropylcellulose) (HPC)
[13] = dose: 100.0 mg/kg/injection, schedule: Q01DX005 (ip), vehicle: Klucel (hydroxypropylcellulose) (HPC)
[14] = dose: 50.0 mg/kg/injection, schedule: Q01DX005 (ip), vehicle: saline with Tween-80
[15] = dose: 100.0 mg/kg/injection, schedule: Q01DX005 (ip), vehicle: saline with Tween-80
[16] = dose: 200.0 mg/kg/injection, schedule: Q01DX005 (ip), vehicle: saline with Tween-80

SMILES: C1CC[N-]CC1.C1CC[N-]CC1.C1CC[N-]CC1.C1CC[N-]CC1.[Pt+4]
- T/C (dose: 2.0 mg/kg/injection, schedule: Q01DX009 (ip), vehicle: saline): 95 % of control
- T/C (dose: 4.0 mg/kg/injection, schedule: Q01DX009 (ip), vehicle: saline): 89 % of control
- T/C (dose: 8.0 mg/kg/injection, schedule: Q01DX009 (ip), vehicle: saline): 93 % of control

SMILES: O=C(O)C1=C(C=C(c2ccccc2)c2ccccc2)OCCC1
- T/C [1]: 92 % of control
- T/C (dose: 25.0 mg/kg/injection, schedule: Q01DX009 (ip), vehicle: saline with Tween-80): 90 % of control
- T/C [2]: 91 % of control
- T/C (dose: 200.0 mg/kg/injection, schedule: Q01DX009 (ip), vehicle: saline with Tween-80): 97 % of control

SMILES: CC12CCCN1C(=O)C1(C)CCCN1C2=O (centres undefined)
- T/C (dose: 100.0 mg/kg/injection, schedule: Q04DX003 (ip), vehicle: saline): 101 % of control
- T/C (dose: 200.0 mg/kg/injection, schedule: Q04DX003 (ip), vehicle: saline): 98 % of control
- T/C (dose: 400.0 mg/kg/injection, schedule: Q04DX003 (ip), vehicle: saline): 97 % of control

SMILES: Cc1nc2scc(-c3ccccc3)n2c(=O)c1CN1CCOCC1
- T/C (dose: 37.5 mg/kg/injection, schedule: Q04DX002 (ip), vehicle: Klucel (hydroxypropylcellulose) (HPC)): 106 % of control
- T/C (dose: 75.0 mg/kg/injection, schedule: Q04DX002 (ip), vehicle: Klucel (hydroxypropylcellulose) (HPC)): 97 % of control
- T/C (dose: 150.0 mg/kg/injection, schedule: Q04DX002 (ip), vehicle: Klucel (hydroxypropylcellulose) (HPC)): 103 % of control

SMILES: CCCCC1CN=C(OCC)N1 (centres undefined)
- T/C (dose: 6.25 mg/kg/injection, schedule: Q01DX005 (ip), vehicle: saline with Tween-80): 104 % of control
- T/C [3]: 98 % of control

SMILES: O=C(CCCl)Nc1ccc(CCC(=O)c2ccccc2NC(=O)CCCl)cc1
- T/C [4]: 100 % of control
- T/C [5]: 90 % of control
- T/C [6]: 92 % of control

SMILES: CC(C)N1CC(CCN2CCOCC2)C(c2ccccc2)(C2CCCC2)C1=O (centres undefined)
- T/C [7]: 106 % of control
- T/C [8]: 101 % of control
- T/C [9]: 108 % of control

SMILES: O=c1[nH]cccc1O
- T/C (dose: 16.0 mg/kg/injection, schedule: Q01DX009 (ip), vehicle: saline with Tween-80): 115 % of control
- T/C (dose: 32.0 mg/kg/injection, schedule: Q01DX009 (ip), vehicle: saline with Tween-80): 122 % of control
- T/C [7]: 109 % of control and 113 % of control
- T/C [10]: 105 % of control and 110 % of control
- T/C (dose: 64.0 mg/kg/injection, schedule: Q01DX009 (ip), vehicle: saline with Tween-80): 112 % of control
- T/C [11]: 100 % of control and 111 % of control
- T/C (dose: 200.0 mg/kg/injection, schedule: Q01DX009 (ip), vehicle: saline): 112 % of control and 115 % of control
- T/C (dose: 400.0 mg/kg/injection, schedule: Q01DX009 (ip), vehicle: Klucel (hydroxypropylcellulose) (HPC)): 98 % of control
- T/C (dose: 512.0 mg/kg/injection, schedule: Q01DX009 (ip), vehicle: saline with Tween-80): 153 % of control

SMILES: O=C1c2ccccc2C(=O)N1CN1C(=O)c2ccccc2S1(=O)=O
- T/C [12]: 93 % of control
- T/C [13]: 98 % of control

SMILES: CCc1c(N2CCOCC2)c(C#N)c2nc3ccccc3n2c1N1CCOCC1
- T/C [4]: 99 % of control
- T/C [5]: 95 % of control
- T/C [6]: 98 % of control

SMILES: CC1CC2(c3ccccc3)C(=O)NC(=O)N=C2O1 (centres undefined)
- T/C (dose: 100.0 mg/kg/injection, schedule: Q04DX002 (ip), vehicle: Klucel (hydroxypropylcellulose) (HPC)): 105 % of control
- T/C (dose: 200.0 mg/kg/injection, schedule: Q04DX002 (ip), vehicle: Klucel (hydroxypropylcellulose) (HPC)): 109 % of control
- T/C (dose: 400.0 mg/kg/injection, schedule: Q04DX002 (ip), vehicle: Klucel (hydroxypropylcellulose) (HPC)): 105 % of control

SMILES: CSc1nc(SC)c2cn(Cc3ccccc3)nc2n1
- T/C [14]: 105 % of control
- T/C [15]: 108 % of control
- T/C [16]: 102 % of control

SMILES: CSC(=S)N/N=C(\C)c1ccc[nH]1
- T/C [12]: 99 % of control
- T/C [13]: 97 % of control

SMILES: COC1=C(C)C2CC(=O)OC3C(O)C4C(C)CC(O)C(=O)C4(C)C(C1=O)C23C (centres undefined)
- T/C (dose: 3.0 mg/kg/injection, schedule: Q01DX009 (ip), vehicle: alcohol): 105 % of control
- T/C (dose: 6.0 mg/kg/injection, schedule: Q01DX009 (ip), vehicle: alcohol): 104 % of control
- T/C (dose: 12.0 mg/kg/injection, schedule: Q01DX009 (ip), vehicle: alcohol): 107 % of control

SMILES: Cn1nc(-c2ccc(Cl)c(Cl)c2)[n+]([O-])c2c(=O)n(C)c(=O)nc1-2
- T/C (dose: 6.25 mg/kg/injection, schedule: Q01DX009 (ip), vehicle: saline with Tween-80): 120 % of control
- T/C [1]: 110 % of control and 115 % of control

SMILES: Cc1cc(=O)n2c(nc3cc(C(=O)c4ccccc4)ccc32)s1
- T/C (dose: 50.0 mg/kg/injection, schedule: Q01DX001 (ip), vehicle: Klucel (hydroxypropylcellulose) (HPC)): 101 % of control
- T/C (dose: 100.0 mg/kg/injection, schedule: Q01DX001 (ip), vehicle: Klucel (hydroxypropylcellulose) (HPC)): 98 % of control
- T/C (dose: 200.0 mg/kg/injection, schedule: Q01DX001 (ip), vehicle: Klucel (hydroxypropylcellulose) (HPC)): 100 % of control

SMILES: Cc1ccc(NC(=O)Oc2cc(C)c(Cl)c(C)c2Cl)c([N+](=O)[O-])c1
- T/C [2]: 114 % of control
- T/C (dose: 100.0 mg/kg/injection, schedule: Q01DX009 (ip), vehicle: saline with Tween-80): 107 % of control

SMILES: O=C1CC2(CCCc3sccc32)C(=O)N1 (centres undefined)
- T/C [4]: 101 % of control
- T/C [5]: 94 % of control
- T/C [6]: 92 % of control

SMILES: O=C(Nc1cccc2c1CCCC2)c1cc2ccccc2cc1O
- T/C [14]: 92 % of control
- T/C [15]: 91 % of control
- T/C [16]: 91 % of control

SMILES: c1ccc2c3c(ccc2c1)CC1CCCN1C3 (centres undefined)
- T/C (dose: 100.0 mg/kg/injection, schedule: Q04DX003 (ip), vehicle: Klucel (hydroxypropylcellulose) (HPC)): 100 % of control
- T/C (dose: 200.0 mg/kg/injection, schedule: Q04DX003 (ip), vehicle: Klucel (hydroxypropylcellulose) (HPC)): 103 % of control

SMILES: O=S(=O)(O)CC(O)CNC(CO)(CO)CO (centres undefined)
- T/C (dose: 60.0 mg/kg/injection, schedule: Q01DX005 (ip), vehicle: saline): 104 % of control
- T/C (dose: 120.0 mg/kg/injection, schedule: Q01DX005 (ip), vehicle: saline): 98 % of control
- T/C (dose: 240.0 mg/kg/injection, schedule: Q01DX005 (ip), vehicle: saline): 104 % of control

SMILES: COc1ccc2c(c1)C(=O)C1(CC2)OC1c1ccncc1 (centres undefined)
- T/C [8]: 97 % of control
- T/C [9]: 100 % of control

SMILES: COc1ccc(-c2cc(=O)c3c(O)c(OC)c(OC)cc3o2)cc1O
- T/C (dose: 18.8 mg/kg/injection, schedule: Q04DX002 (ip), vehicle: saline with Tween-80): 96 % of control
- T/C (dose: 37.5 mg/kg/injection, schedule: Q04DX002 (ip), vehicle: saline with Tween-80): 102 % of control
- T/C (dose: 75.0 mg/kg/injection, schedule: Q04DX002 (ip), vehicle: saline with Tween-80): 93 % of control
- T/C (dose: 150.0 mg/kg/injection, schedule: Q04DX002 (ip), vehicle: saline with Tween-80): 96 % of control

SMILES: COC(=O)C12OCC34C(CC5C(C)=C(O)C(=O)CC5(C)C3C(O)C1O)OC(=O)C(OC(=O)N(C)[Si](C)(C)C(C)(C)C)C24 (centres undefined)
- T/C (dose: 125.0 micrograms/kg/injection, schedule: Q01DX005 (ip), vehicle: Klucel (hydroxypropylcellulose) (HPC)): 101 % of control
- T/C (dose: 250.0 micrograms/kg/injection, schedule: Q01DX005 (ip), vehicle: Klucel (hydroxypropylcellulose) (HPC)): 95 % of control
- T/C (dose: 500.0 micrograms/kg/injection, schedule: Q01DX005 (ip), vehicle: Klucel (hydroxypropylcellulose) (HPC)): 96 % of control
- T/C (dose: 1000.0 micrograms/kg/injection, schedule: Q01DX005 (ip), vehicle: Klucel (hydroxypropylcellulose) (HPC)): 95 % of control

SMILES: COC(=O)C(=O)c1c(C(=O)OC)nc2nnc(N)n2c1-c1ccc(F)cc1
- T/C (dose: 30.0 mg/kg/injection, schedule: Q01DX005 (ip), vehicle: saline with Tween-80): 93 % of control
- T/C [4]: 99 % of control
- T/C [5]: 88 % of control
- T/C [6]: 93 % of control

SMILES: C=C1C(=O)O[C@H]2[C@H]1[C@@H](OC(=O)C=C(C)C)CC1=C[C@@H](C[C@@]3(C)O[C@@H]23)OC1=O
- T/C (dose: 12.5 mg/kg/injection, schedule: Q01DX009 (ip), vehicle: saline): 92 % of control
- T/C (dose: 25.0 mg/kg/injection, schedule: Q01DX009 (ip), vehicle: saline): 100 % of control
- T/C [10]: 99 % of control
- T/C [11]: 101 % of control

SMILES: CC(C)NC(=O)OCc1cn2c(c1COC(=O)NC(C)C)CCC2
- T/C [3]: 120 % of control and 121 % of control
- T/C (dose: 25.0 mg/kg/injection, schedule: Q01DX005 (ip), vehicle: saline with Tween-80): 112 % of control
